The text below walks through data of US9708302B2, “Flouro-naphthyl derivatives” (Hoffmann-La Roche Inc., priority 2014, dated 2017).

The target in experiment [1] is hM1 (Homo sapiens (Human), UniProt P11229). Kind of experiment: M1 PAM Assay (FLIPR intracellular calcium, CHO human M1 cells). In kind it is cell-based. The following applies: positive allosteric modulation in presence of EC20 of acetylcholine, first value of cell. The procedure:
(§1) The assay study the effect of several concentrations of test compounds on basal or acetylcholine-stimulated Ca^2+ levels using FLIPR.
(§2) CHO human M1 are plated the day before the experiments at 2×10^5 cells/ml in PDL BioCoat 96 well black/clear plate (Becton 35 4640). The cells are grown at 37° C. and 5% CO2 in the following medium: F12 Nut Mix (Gibco 21765), 10% FCS heat inactivated (GIBCO 16000-044), 1% Pen Strep (Gibco, 15140) and 200 μg/ml Geneticin (Gibco 11811). On the day of the experiment, the medium was removed and replaced by 100 μl of dye loading buffer containing Hanks Balanced Salt solution (HBSS, 14065-049, Gibco) with 20 mM HEPES (Gibco 15630-056), 2 mM Probenicid (Sigma P8761), […] (Molecular Probes F-14202), 10% Pluronic acid Molecular Probes P-3000) pH=7.4 and incubated at 37° C. After 60 minutes extracellular dye was removed and the cells were washed five times with FLIPR buffer containing HBSS (Gibco 14065-049) with 20 mM HEPES (Gibco, 15630-056), 2 mM Probenicid (Sigma P8761) pre-warmed at 37° C. using and Ebml cell washer leaving 100 μl of FLIPR buffer in each well. The cell plate and the diluted compounds (1% DMSO final concentration) are placed on the platform of the FLIPR and the door closed. A signal test to check background fluorescence and basal fluorescence signal is performed. Laser intensity is adjusted if necessary. Two minutes preincubation with the diluted test compounds is provide to determine any agonist activity on the M1 receptor by comparison to 30 nM Acetylcholine control. In order to determine any modulator activity the diluted compounds were added to cells and after two minutes preincubation, the EC20 of acetylcholine is added followed by another two minutes preincubation before the measurement of intracellular Ca^2+ with a FLIPR (Molecular Devices).

Experiment [2] deals with rat M1 (Rattus norvegicus (Rat), UniProt P08482). Kind of experiment: M1 PAM Assay (FLIPR intracellular calcium), rat M1. The following applies: positive allosteric modulation in presence of EC20 of acetylcholine; second value of cell. In kind it is cell-based. As for the experimental part: [The procedure below names another species; the source lists this species under the same test.] as §1, §2
Sequence of rat M1 (P08482 whole entry): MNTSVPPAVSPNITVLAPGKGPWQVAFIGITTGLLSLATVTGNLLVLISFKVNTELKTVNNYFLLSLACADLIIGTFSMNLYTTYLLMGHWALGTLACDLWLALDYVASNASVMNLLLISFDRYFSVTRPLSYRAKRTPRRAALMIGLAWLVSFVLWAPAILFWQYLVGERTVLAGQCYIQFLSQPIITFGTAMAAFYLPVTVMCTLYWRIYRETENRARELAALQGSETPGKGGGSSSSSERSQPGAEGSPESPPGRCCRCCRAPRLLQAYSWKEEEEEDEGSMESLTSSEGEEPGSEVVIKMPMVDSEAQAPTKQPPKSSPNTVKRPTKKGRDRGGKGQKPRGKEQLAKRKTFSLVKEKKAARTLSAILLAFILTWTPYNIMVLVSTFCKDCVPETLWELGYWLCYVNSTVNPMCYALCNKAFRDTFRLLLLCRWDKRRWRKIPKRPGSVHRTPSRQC
For orientation: Calcium assays in cells follow changes in intracellular calcium, usually with a dye or a luminescent sensor.

pEC50: −log10 of the molar value.

Sequence of hM1 (P11229 whole entry): as the sequence (P08482 whole entry) above, with V5A, S254T, S309P, K320R, G337A, V413I counted along it

In the case of `O=C(N[C@H]1CCCC[C@@H]1O)c1cc(Cc2ccc(Cl)nc2)c2ccccc2c1F` (racemic) [Example 1, 4-((6-Chloropyridin-3-yl)methyl)-1-fluoro-N-((1SR,2SR)-2-hydroxycyclohexyl)-2-naphthamide], the pEC50 – broadly, the EC50 on a negative log10 scale, so that one unit is a factor of ten – in experiment [1] is 6.80; in experiment [2], 6.86.
For `O=C(N[C@H]1CCOC[C@@H]1O)c1cc(Cc2ccc(Cl)nc2)c2ccccc2c1F` (racemic) [Example 2, 4-((6-chloropyridin-3-yl)methyl)-1-fluoro-N-((3RS,4SR)-3-hydroxytetrahydro-2H-pyran-4-yl)-2-naphthamide], in that order: 7.28 and 6.93.
In the case of `C[C@]1(O)CCCC[C@@H]1NC(=O)c1cc(Cc2ccc(Cl)nc2)c2ccccc2c1F` (racemic) [Example 7, 4-((6-chloropyridin-3-yl)methyl)-1-fluoro-N-((1SR,2SR)-2-hydroxy-2-methylcyclohexyl)-2-naphthamide], the pEC50 in experiment [1] was 6.25.
As to `C[C@@]1(O)CCCC[C@@H]1NC(=O)c1cc(Cc2ccc(Cl)nc2)c2ccccc2c1F` (racemic) [Example 8, 4-((6-chloropyridin-3-yl)methyl)-1-fluoro-N-((1SR,2RS)-2-hydroxy-2-methylcyclohexyl)-2-naphthamide], the pEC50 in experiment [1] is 6.28.
Take `O=C(N[C@H]1CCCC[C@H]1O)c1cc(Cc2ccc(Cl)nc2)c2ccccc2c1F` (racemic) [Example 9, 4-((6-chloropyridin-3-yl)methyl)-1-fluoro-N-((1SR,2RS)-2-hydroxycyclohexyl)-2-naphthamide]: in experiment [1], the pEC50 is 6.27.
Regarding `Cc1ccc(Cc2cc(C(=O)N[C@H]3CCOC[C@@H]3O)c(F)c3ccccc23)cc1` (racemic) [Example 10, 1-Fluoro-N-((3RS,4SR)-3-hydroxytetrahydro-2H-pyran-4-yl)-4-(4-methylbenzyl)-2-naphthamide], the results for the pEC50 in experiment [1] and in experiment [2] were 6.81 and 6.66, respectively.
Regarding `O=C(N[C@H]1CCOC[C@@H]1O)c1cc(Cc2ccccc2)c2ccccc2c1F` (racemic) [Example 11, 4-benzyl-1-fluoro-N-((3RS,4SR)-3-hydroxytetrahydro-2H-pyran-4-yl)-2-naphthamide], the pEC50 in experiment [1] is 6.71; in experiment [2], 6.45.
On to `O=C(N[C@H]1CCOC[C@@H]1O)c1cc(Cc2ccc(Cl)cc2)c2ccccc2c1F` (racemic) [Example 12, 4-(4-chlorobenzyl)-1-fluoro-N-((3RS,4SR)-3-hydroxytetrahydro-2H-pyran-4-yl)-2-naphthamide], for which the pEC50 in experiment [1] is 6.82; in experiment [2], 6.56.
With `N#Cc1ccc(Cc2cc(C(=O)N[C@H]3CCOC[C@@H]3O)c(F)c3ccccc23)cc1` (racemic) [Example 13, 4-(4-cyanobenzyl)-1-fluoro-N-((3RS,4SR)-3-hydroxytetrahydro-2H-pyran-4-yl)-2-naphthamide], the results for the pEC50 in experiment [1] and in experiment [2] were 7.17 and 7.15, respectively.
`Cn1cc(-c2ccc(Cc3cc(C(=O)N[C@H]4CCOC[C@@H]4O)c(F)c4ccccc34)c(F)c2)cn1` (racemic) [Example 14, 1-fluoro-4-(2-fluoro-4-(1-methyl-1H-pyrazol-4-yl)benzyl)-N-((3RS,4SR)-3-hydroxytetrahydro-2H-pyran-4-yl)-2-naphthamide]: the pEC50 in experiment [1] and in experiment [2] was 7.85 in each case.
Turning to `O=C(N[C@H]1CCOC[C@@H]1O)c1cc(Cc2ccc(OC(F)(F)F)cc2)c2ccccc2c1F` (racemic) [Example 15, 1-fluoro-N-((3RS,4SR)-3-hydroxytetrahydro-2H-pyran-4-yl)-4-(4-(trifluoromethoxy)benzyl)-2-naphthamide], in experiment [1], the negative-log EC50 (pEC50) is 6.27.
As for `Cn1cc(-c2ccc(Cc3cc(C(=O)N[C@H]4CCOC[C@@H]4O)c(F)c4ccccc34)cc2)cn1` (racemic) [Example 16, 1-fluoro-N-((3RS,4SR)-3-hydroxytetrahydro-2H-pyran-4-yl)-4-(4-(1-methyl-1H-pyrazol-4-yl)benzyl)-2-naphthamide], the pEC50 in experiment [1] is 7.96; in experiment [2], 7.70.
For `Cn1cc(-c2ccc(Cc3cc(C(=O)N[C@H]4CCCC[C@@H]4O)c(F)c4ccccc34)cn2)cn1` (racemic) [Example 17, 1-Fluoro-N-((1S,2S)-2-hydroxycyclohexyl)-4-((6-(1-methyl-1H-pyrazol-4-yl)pyridin-3-yl)methyl)-2-naphthamide], in that order: 8.00 and 7.85.
For `Cn1cc(-c2ccc(Cc3cc(C(=O)N[C@H]4CCOC[C@@H]4O)c(F)c4ccccc34)cn2)cn1` (racemic) [Example 18, 1-fluoro-N-((3RS,4SR)-3-hydroxytetrahydro-2H-pyran-4-yl)-4-((6-(1-methyl-1H-pyrazol-4-yl)pyridin-3-yl)methyl)-2-naphthamide], the negative-log EC50 (pEC50) in experiment [1] is 8.52; in experiment [2], 8.22.
Turning to `Cn1cc(-c2ccc(Cc3cc(C(=O)N[C@H]4CCCC[C@@]4(C)O)c(F)c4ccccc34)cn2)cn1` (racemic) [Example 22, 1-fluoro-N-((1SR,2RS)-2-hydroxy-2-methylcyclohexyl)-4-((6-(1-methyl-1H-pyrazol-4-yl)pyridin-3-yl)methyl)-2-naphthamide], the pEC50 is 7.70 in experiment [1] and 7.39 in experiment [2].
Regarding `Cc1ccc(Cc2cc(C(=O)N[C@H]3CCCC[C@@H]3O)c(F)c3ccccc23)cn1` (racemic) [Example 23, 1-Fluoro-N-((1SR,2SR)-2-hydroxycyclohexyl)-4-((6-methylpyridin-3-yl)methyl)-2-naphthamide], the results for the pEC50 in experiment [1] and in experiment [2] were 6.67 and 6.31, respectively.
Consider `O=C(N[C@@H]1CCOC[C@H]1O)c1cc(Cc2ccc(Cl)nc2)c2ccccc2c1F` (stereo in doubt) [Example 25, 4-[(6-chloropyridin-3-yl)methyl]-1-fluoro-N-[(3S,4R)-3-hydroxyoxan-4-yl]naphthalene-2-carboxamide], for which the negative logarithm of the EC50 (pEC50) in experiment [1] is 7.57; in experiment [2], 7.28.
As to `O=C(N[C@H]1CCCC[C@@H]1O)c1cc(Cc2ccc(Cl)nc2)c2ccccc2c1F` [Example 3, 4-((6-chloropydridin-3-yl)methyl)-1-fluoro-N-((1S,2S)-2-hydroxycyclohexyl)-2-naphthamide], the pEC50 in experiment [1] is 7.08; in experiment [2], 7.00.
Turning to `O=C(N[C@H]1COCC[C@@H]1O)c1cc(Cc2ccc(Cl)nc2)c2ccccc2c1F` [Example 4, 4-((6-Chloropyridin-3-yl)methyl)-1-fluoro-N-((3S,4S)-4-hydroxytetrahydro-2H-pyran-3-yl)-2-naphthamide], the pEC50 in experiment [1] was 6.37.
Regarding `O=C(N[C@H]1CCC[C@@H]1O)c1cc(Cc2ccc(Cl)nc2)c2ccccc2c1F` [Example 5, 4-((6-chloropyridin-3-yl)methyl)-1-fluoro-N-((1S,2S)-2-hydroxycyclopentyl)-2-naphthamide], the pEC50 in experiment [1] is 6.44; in experiment [2], 6.01.
`O=C(N[C@H]1CCC[C@H]1O)c1cc(Cc2ccc(Cl)nc2)c2ccccc2c1F` [Example 6, 4-((6-chloropydridin-3-yl)methyl)-1-fluoro-N-((1S,2R)-2-hydroxycyclopentyl)-2-naphthamide]: the pEC50 in experiment [1] was 6.24.
As to `Cn1cc(-c2ccc(Cc3cc(C(=O)N[C@@H]4CCOC[C@H]4O)c(F)c4ccccc34)cn2)cn1` [Example 19, 1-fluoro-N-[(3S,4R)-3-hydroxytetrahydropyran-4-yl]-4-[[6-(1-methylpyrazol-4-yl)-3-pyridyl]methyl]naphthalene-2-carboxamide], the pEC50 is 7.19 in experiment [1] and 7.01 in experiment [2].
As to `Cn1cc(-c2ccc(Cc3cc(C(=O)N[C@H]4CCOC[C@@H]4O)c(F)c4ccccc34)cn2)cn1` [Example 20, 1-fluoro-N-[(3R,4S)-3-hydroxytetrahydropyran-4-yl]-4-[[6-(1-methylpyrazol-4-yl)-3-pyridyl]methyl]naphthalene-2-carboxamide], the negative-log EC50 (pEC50) in experiment [1] and in experiment [2] was 8.70 in each case.
Consider `Cn1cc(-c2ccc(Cc3cc(C(=O)N[C@H]4COCC[C@@H]4O)c(F)c4ccccc34)cn2)cn1` [Example 21, 1-fluoro-N-((3S,4S)-4-hydroxytetrahydro-2H-pyran-3-yl)-4-((6-(1-methyl-1H-pyrazol-4-yl)pyridin-3-yl)methyl)-2-naphthamide], for which the pEC50 in experiment [1] was 7.48; in experiment [2], 7.32.
Take `O=C(N[C@H]1CCCC[C@@H]1O)c1cc(Cc2ccc(C3CC3)nc2)c2ccccc2c1F` [Example 24, 4-((6-Cyclopropylpyridin-3-yl)methyl)-1-fluoro-N-((1S,2S)-2-hydroxycyclohexyl)-2-naphthamide]: the figures for the negative-log EC50 (pEC50) in experiment [1] and in experiment [2] were 6.64 and 6.46, respectively.
On to `N#CC1(c2ccccn2)CCN(Cc2cc(C(=O)N[C@H]3CCCC[C@@H]3O)c(F)c3ccccc23)CC1` [Example 26, 4-((4-Cyano-4-(pyridin-2-yl)piperidin-1-yl)methyl)-1-fluoro-N-((1S,2S)-2-hydroxycyclohexyl)-2-naphthamide], for which the pEC50 in experiment [1] is 6.59; in experiment [2] it was 6.46.
